According to patent publication EP2853532B1, “1,2,4-oxadiazole derivatives as allosteric modulators of metabotropic glutamate receptors belonging to group III” (Instytut Farmakologii Polskiej Akademii Nauk, priority 2013, dated 2015):

target: mGluR8 (Homo sapiens, UniProt O00222); assay: not given; settings: cited from earlier work
Sequence (O00222 34-908, species assumed): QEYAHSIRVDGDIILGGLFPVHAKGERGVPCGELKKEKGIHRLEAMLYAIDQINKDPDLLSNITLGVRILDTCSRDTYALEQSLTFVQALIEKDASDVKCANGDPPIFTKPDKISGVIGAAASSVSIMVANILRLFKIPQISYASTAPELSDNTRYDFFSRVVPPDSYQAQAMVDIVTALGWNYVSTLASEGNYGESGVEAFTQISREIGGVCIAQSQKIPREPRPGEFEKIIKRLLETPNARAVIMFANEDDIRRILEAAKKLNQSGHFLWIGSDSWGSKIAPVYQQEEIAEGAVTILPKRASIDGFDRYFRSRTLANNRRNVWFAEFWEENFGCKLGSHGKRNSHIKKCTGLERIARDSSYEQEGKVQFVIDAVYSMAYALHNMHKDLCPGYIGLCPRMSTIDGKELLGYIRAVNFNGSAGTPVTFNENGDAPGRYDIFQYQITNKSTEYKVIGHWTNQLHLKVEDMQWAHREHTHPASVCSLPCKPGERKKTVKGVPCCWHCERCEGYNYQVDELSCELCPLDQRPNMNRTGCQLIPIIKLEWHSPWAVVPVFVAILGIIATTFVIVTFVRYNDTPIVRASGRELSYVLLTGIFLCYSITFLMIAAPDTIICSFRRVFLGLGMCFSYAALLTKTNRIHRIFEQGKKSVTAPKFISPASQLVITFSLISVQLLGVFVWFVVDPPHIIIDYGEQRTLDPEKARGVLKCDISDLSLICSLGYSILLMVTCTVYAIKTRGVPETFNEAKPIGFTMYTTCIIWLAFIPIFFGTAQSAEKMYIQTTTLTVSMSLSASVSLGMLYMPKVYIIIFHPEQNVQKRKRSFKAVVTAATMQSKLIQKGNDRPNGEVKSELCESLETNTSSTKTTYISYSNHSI

Row | SMILES | selectivity for mGluR8 over mGluR4
1 | N[C@H](C(=O)O)c1ccc(C(=O)O)c(C(=O)O)c1 [(S)-3,4-DCPG] | 100 fold

target: mGluR1 (Homo sapiens, UniProt Q13255); assay: not given; settings: cited from earlier work
Sequence (Q13255 19-1194): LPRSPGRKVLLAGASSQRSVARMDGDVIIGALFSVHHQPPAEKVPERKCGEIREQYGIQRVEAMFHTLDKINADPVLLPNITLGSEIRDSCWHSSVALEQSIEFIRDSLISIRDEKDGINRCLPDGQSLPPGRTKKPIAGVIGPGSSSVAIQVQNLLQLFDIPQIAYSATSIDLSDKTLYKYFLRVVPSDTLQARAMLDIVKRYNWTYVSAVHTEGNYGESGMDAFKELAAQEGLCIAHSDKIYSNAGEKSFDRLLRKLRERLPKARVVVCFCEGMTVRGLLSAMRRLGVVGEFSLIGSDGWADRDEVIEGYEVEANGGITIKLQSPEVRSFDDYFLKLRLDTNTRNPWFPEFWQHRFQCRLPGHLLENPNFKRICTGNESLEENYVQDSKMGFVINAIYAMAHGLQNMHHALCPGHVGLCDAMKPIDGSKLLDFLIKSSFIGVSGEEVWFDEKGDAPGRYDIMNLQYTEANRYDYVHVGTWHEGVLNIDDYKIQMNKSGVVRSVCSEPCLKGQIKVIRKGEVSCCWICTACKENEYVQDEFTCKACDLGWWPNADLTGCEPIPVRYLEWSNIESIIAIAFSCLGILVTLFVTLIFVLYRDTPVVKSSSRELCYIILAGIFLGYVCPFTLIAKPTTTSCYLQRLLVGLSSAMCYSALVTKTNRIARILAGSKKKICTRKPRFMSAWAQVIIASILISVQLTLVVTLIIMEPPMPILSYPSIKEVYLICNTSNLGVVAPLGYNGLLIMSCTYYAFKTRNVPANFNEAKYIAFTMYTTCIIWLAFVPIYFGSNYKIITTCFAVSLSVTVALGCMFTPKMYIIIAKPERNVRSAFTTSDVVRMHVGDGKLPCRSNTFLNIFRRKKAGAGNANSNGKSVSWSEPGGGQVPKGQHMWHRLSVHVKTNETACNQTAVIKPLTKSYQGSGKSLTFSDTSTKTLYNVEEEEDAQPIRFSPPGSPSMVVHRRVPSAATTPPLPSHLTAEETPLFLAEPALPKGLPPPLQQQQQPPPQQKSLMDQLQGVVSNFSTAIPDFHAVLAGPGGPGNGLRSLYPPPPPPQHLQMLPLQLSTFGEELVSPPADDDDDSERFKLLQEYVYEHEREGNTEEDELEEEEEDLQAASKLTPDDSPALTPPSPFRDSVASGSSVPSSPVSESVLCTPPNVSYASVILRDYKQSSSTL

Row | SMILES | partial antagonist of mGluR1
2 | O=C(Nc1ccccc1)C12CC1C(=NO)c1ccccc1O2 (single isomer, unassigned; (-)) [(-)PHCCC, N-phenyl-7-(hydroxyimino)cyclopropan[b]chromen-1a-carboxamide] | 30%

target: T1, recombinant human mGlu4a receptor (Homo sapiens, UniProt Q14833); assay: mGluR4 assay on T-Rex-293 cell line; cyclic AMP level by HTRF in the presence of forskolin and glutamate; assay type: cell-based; settings: EC50 for potentiation of glutamate response; forskolin 10 uM; mean of at least three independent experiments in duplicates
T1 construct: expressed in transfected cells
T1 sequence (Q14833 33-912): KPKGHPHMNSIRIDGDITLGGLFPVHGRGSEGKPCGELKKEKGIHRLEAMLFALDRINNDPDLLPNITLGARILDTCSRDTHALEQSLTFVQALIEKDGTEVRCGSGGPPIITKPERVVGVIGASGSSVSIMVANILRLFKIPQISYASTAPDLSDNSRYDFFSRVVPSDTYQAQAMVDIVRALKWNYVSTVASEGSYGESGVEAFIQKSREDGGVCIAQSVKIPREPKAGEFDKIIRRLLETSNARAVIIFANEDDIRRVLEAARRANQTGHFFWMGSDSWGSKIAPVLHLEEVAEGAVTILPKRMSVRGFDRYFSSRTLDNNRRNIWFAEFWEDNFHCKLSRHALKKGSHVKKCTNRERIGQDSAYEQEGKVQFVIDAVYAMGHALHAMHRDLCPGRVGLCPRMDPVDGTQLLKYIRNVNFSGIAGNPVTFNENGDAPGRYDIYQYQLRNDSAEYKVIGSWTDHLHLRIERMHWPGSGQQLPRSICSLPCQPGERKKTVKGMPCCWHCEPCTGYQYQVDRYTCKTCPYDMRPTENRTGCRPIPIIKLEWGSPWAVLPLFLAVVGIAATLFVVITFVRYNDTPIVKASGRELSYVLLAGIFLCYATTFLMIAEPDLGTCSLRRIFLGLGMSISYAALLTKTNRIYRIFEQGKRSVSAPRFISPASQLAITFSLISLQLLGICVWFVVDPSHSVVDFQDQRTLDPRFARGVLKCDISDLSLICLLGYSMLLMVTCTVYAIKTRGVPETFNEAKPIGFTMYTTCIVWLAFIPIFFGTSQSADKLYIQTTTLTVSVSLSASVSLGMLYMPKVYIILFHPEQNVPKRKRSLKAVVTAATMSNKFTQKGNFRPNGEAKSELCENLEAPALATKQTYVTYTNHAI
Source text: mGluR4 assay on T-Rex™-293 Cell line - expressing recombinant human mGlu4 receptor.
The compounds of the present invention are positive allosteric modulator of III group of metabotropic glutamate receptors, subtype 4. Their activity was examined on recombinant human mGlu4a receptor by detecting level of cyclic AMP in the presence of forskolin, adenylyl cyclase activator. The positive allosteric modulators provided in the present invention are expected to increase the functional activity and/or maximal efficacy of glutamate or other orthosteric agonists at mGluR4 receptor.
Plazmid construct. The cDNA fragment encoding human metabotropic receptor 4, variant 1 (accession number: NM_000841, NCBI Nucleotide Database) was cloned into the BamHI/NotI sites of pcDNA5/FRT/TO vector, under the control of a tetracycline regulated promoter (Invitrogen, Poland).
Cell culture and transfection. HEK293 cell line containing an inducible expression system (Flp-In T-Rex 293 cell line, Invitrogen, Poland) was maintained in Dulbecco's modified Eagle's medium supplemented with 10% fetal bovine serum, 2mM L-Glutamine (supplemented DMEM, LONZA, Poland), blastycidin and zeocin. T-Rex 293 cells were transfected with mixture of pTet-hmGluR4 and pOG44 (Invitrogen, Poland) plazmids and GeneJuice transfection reagent (Merck Millipore, Poland) according to the manufacturer's instructions. Cells were grown in supplemented DMEM with hygromycin B (75µg/ml) allowed selection of cells with stably integrated one copy of pTet-hmGluR4 plazmid. Expression of mGluR4 is induced by Tetracycline treatment.
Cell preparation before assay. Stable transfected cells were grown to 60% confluency with supplemented DMEM. Two days before experiment mGluR4 expression was induced by adding tetracycline in concentration 0,75µg/ml. 40h before experiment cells were incubated in a L-Glutamine free medium.
Cyclic AMP measurement. cAMP was measured quantitatively by cAMP dynamic 2 (Cisbio Biossays, France) according to manufacture instructions. cAMP dynamic 2 assay (Cisbio Biossays, France) is method based on homogenous time-resolved fluorescence. cAMP dynamic 2 is a competitive immunoassay between native cAMP produced by cells and the cyclic AMP labeled with, a fluorescence dye. The tracer binding is visualized by antibody anti - cAMP labeled with Eu^3+ cryptate. The specific signal is inversely proportional to the concentration of cAMP in the sample.
Incubation of cells with all compounds was performed in 96 well plates. Each well were supplement with HHB containing 130 mM NaCl, 5,4 mM KCl, 1,8 mM CaCl2, 0,8 mM MgSO4, 0,9 mM NaH2PO4, 25 mM glucose and 20 mM HEPES, pH 7.4 with or without glutamate and with or without tested compound and forskolin (10 uM final concentration) in total volume of 50 ul. Assay was started by adding 50 ul of HHB buffer with cells to each well. Assay was performed in 37° C. After 5 min of incubation 10 ul of suspension containing 2000 cells were transferred to white 384 well plates (784080, Greiner bio-one) containing of 5 ul of cAMP-d2 conjugate in lysis buffer (cAMP dynamic 2, Cisbio Bioassays, France) in each well. Than was added 5 ul of cryptate conjugate in lysis buffer (cAMP dynamic 2, Cisbio Bioassays, France). After 1 h incubation in room temperature the fluorescence intensity of the assay plate were measured at 314 nm excitation, and 620 nm and 665 nm emission in Infinite M1000 (Tecan) microplate reader. Data were expressed as the ratio of 665 nm/620 nm. All liquid handling operations were performed using EVO 2000 system (Tecan, Switzerland).
Potentiation of the glutamate response of mGluR4 receptor by the invented compounds was observed as a decrease of EC50 value for the glutamate in the presence of these molecules in the compare of EC50 value in the absence of compounds. A decrease in the EC50 for glutamate in the presence of tested compound was an indicator of degree of mGluR4 positive allosteric modulation at a given concentration of the sample compound. […]

Row | EC50 | SMILES
3 | < 300 nM | O=C(Nc1ccc(-c2noc(-c3ccccc3)n2)c(C(F)(F)F)c1)c1ccccn1 [Example 28]
4 | < 300 nM | COc1ccccc1-c1nc(-c2ccc(NC(=O)c3ccccn3)cc2F)no1 [Example 27, N-{4-[5-(2-methoxyphenyl)-1,2,4-oxadiazol-3-yl]-3-fluorophenyl}pyridine-2-carboxamide]
5 | < 300 nM | Cc1cc(NC(=O)c2ccccn2)ccc1-c1noc(-c2ccccc2)n1 [Example 30, N-[3-methyl-4-(5-phenyl-1,2,4-oxadiazol-3-yl)phenyl]pyridine-2-carboxamide]
6 | < 300 nM | COc1ccc(C(=O)Nc2ccc(-c3nc(-c4ccccc4)no3)cc2)cc1 [Example 49, 4-methoxy-N-[4-(3-phenyl-1,2,4-oxadiazol-5-yl)phenyl]benzamide]

same assay, conditions: T-REx-293; percent of mGluR4 activity with tested compound and glutamate at maximally activating concentration (100%); mean of at least three independent experiments; read-out: % Glu Max

Row | SMILES | Emax
7 | COc1cc(NC(=O)c2cccc(F)n2)ccc1-c1noc(-c2ccccc2F)n1 [Example 40, 6-fluoro-N-{4-[5-(2-fluorophenyl)-1,2,4-oxadiazol-3-yl]-3-methoxyphenyl} pyridine-2-carboxamide] | 105 to 135%
8 | O=S(=O)(Nc1ccc(F)cc1F)c1ccc(-c2noc(-c3ccccn3)n2)cc1 [Example 46, N-(2,4-difluorophenyl)-4-[5-(pyridin-2-yl)-1,2,4-oxadiazol-3-yl]benzene-1-sulfonamide] | 99.2 to 119%
9 | O=C(Nc1ccc(-c2nc(-c3ccccc3)no2)cc1)c1ccccc1 [Example 47, N-[4-(3-phenyl-1,2,4-oxadiazol-5-yl)phenyl]benzamide] | 99.2 to 119%
10 | COc1ccc(-c2nc(-c3ccc(NC(=O)c4ccncc4)cc3)no2)cc1 [Example 6, N-{4-[5-(4-methoxyphenyl)-1,2,4-oxadiazol-3-yl]phenyl}pyridine-4-carboxamide] | 105 to 135%
11 | COc1ccc(C(=O)Nc2ccc(-c3nc(-c4ccccc4)no3)cc2)cc1 [Example 49, 4-methoxy-N-[4-(3-phenyl-1,2,4-oxadiazol-5-yl)phenyl]benzamide] | 105 to 118%
12 | COc1cc(NC(=O)c2ncc(Cl)cc2F)ccc1-c1noc(-c2ccccc2Cl)n1 [Example 33, 5-chloro-N-{4-[5-(2-chlorophenyl)-1,2,4-oxadiazol-3-yl]-3-methoxyphenyl}-3-fluoropyridine-2-carboxamide] | 99.2 to 119%
13 | Cn1cccc1C(=O)Nc1ccc(-c2nc(-c3ccccc3)no2)cc1 [Example 54, 1-methyl-N-[4-(3-phenyl-1,2,4-oxadiazol-5-yl)phenyl]-1H-pyrrole-2-carboxamide] | 99.2 to 119%
14 | COc1cc(NC(=O)c2nc(Cl)ccc2Cl)ccc1-c1noc(-c2ccccc2F)n1 [Example 41, 3,6-dichloro-N-{4-[5-(2-fluorophenyl)-1,2,4-oxadiazol-3-yl]-3-methoxyphenyl}pyridine-2-carboxamide] | 99.2 to 119%
15 | O=S(=O)(Nc1ccccc1Cl)c1ccc(-c2noc(-c3ccccc3)n2)cc1 [Example 44, N-(2-chlorophenyl)-4-(5-phenyl-1,2,4-oxadiazol-3-yl)benzene-1-sulfonamide] | 99.2 to 119%
16 | O=C(Nc1ccc(-c2nc(-c3ccccc3)no2)cc1)c1cccc(Cl)c1 [Example 48, 3-chloro-N-[4-(3-phenyl-1,2,4-oxadiazol-5-yl)phenyl]benzamide] | 99.2 to 119%
17 | O=C(Nc1ccc(-c2nc(-c3ccccc3)no2)cc1)c1ccc([N+](=O)[O-])cc1 [Example 50, 4-nitro-N-[4-(3-phenyl-1,2,4-oxadiazol-5-yl)phenyl]benzamide] | 105 to 135%

Continued, values first:

Row | Emax | SMILES
18 | 105 to 135% | O=C(Nc1ccc(-c2noc(-c3ccc(F)cc3Cl)n2)c(F)c1)c1ccccn1 [Example 26, N-{4-[5-(2-chloro-4-fluorophenyl)-1,2,4-oxadiazol-3-yl]-3-fluorophenyl} pyridine-2-carboxamide]
19 | 99.2 to 119% | O=C(Nc1ccc(-c2noc(-c3ccccc3Cl)n2)c(Cl)c1)c1cccc(F)n1 [Example 42]
20 | 105 to 118% | O=C(Nc1ccc(-c2noc(-c3ccccc3)n2)c(C(F)(F)F)c1)c1ccccn1 [Example 28]
21 | 105 to 118% | COc1ccccc1-c1nc(-c2ccc(NC(=O)c3ccccn3)cc2F)no1 [Example 27, N-{4-[5-(2-methoxyphenyl)-1,2,4-oxadiazol-3-yl]-3-fluorophenyl}pyridine-2-carboxamide]
22 | 105 to 135% | Cc1cc(NC(=O)c2ccccn2)ccc1-c1noc(-c2ccccc2Cl)n1 [Example 31, N-{4-[5-(2-chlorophenyl)-1,2,4-oxadiazol-3-yl]-3-methylphenyl}pyridine-2-carboxamide]
23 | 105 to 135% | COc1cc(NC(=O)c2ccncn2)ccc1-c1noc(-c2ccccc2Cl)n1 [Example 38, N-{4-[5-(2-chlorophenyl)-1,2,4-oxadiazol-3-yl]-3-methoxyphenyl} pyrimidine-4-carboxamide]
24 | 99.2 to 119% | COc1cc(NC(=O)c2ccccn2)ccc1-c1noc(-c2ccc(F)cc2Cl)n1 [Example 19, N-{4-[5-(2-chloro-4-fluorophenyl)-1,2,4-oxadiazol-3-yl]-3-methoxyphenyl} pyridine-2-carboxamide]
25 | 105 to 118% | Cc1cc(NC(=O)c2ccccn2)ccc1-c1noc(-c2ccccc2)n1 [Example 30, N-[3-methyl-4-(5-phenyl-1,2,4-oxadiazol-3-yl)phenyl]pyridine-2-carboxamide]
26 | 99.2 to 119% | O=C(Nc1ccc(-c2noc(-c3ccc(F)cc3Cl)n2)c(Cl)c1)c1ccccn1 [Example 22, N-{3-chloro-4-[5-(2-chloro-4-fluorophenyl)-1,2,4-oxadiazol-3-yl]phenyl}pyridine-2-carboxamide]
27 | 99.2 to 119% | O=C(Nc1ccc(-c2noc(-c3ccccc3Cl)n2)c(C(F)(F)F)c1)c1ccccn1 [Example 29, N-{4-[5-(2-chlorophenyl)-1,2,4-oxadiazol-3-yl]-3-(trifluoromethyl)phenyl} pyridine-2-carboxamide]
28 | 99.2 to 119% | COc1cc(NC(=O)c2ccccn2)ccc1-c1noc(-c2ccccc2Cl)n1 [Example 17, N-{4-[5-(2-chlorophenyl)-1,2,4-oxadiazol-3-yl]-3-methoxyphenyl}pyridine-2-carboxamide]
29 | 99.2 to 119% | COc1cc(NC(=O)c2cccc(Cl)n2)ccc1-c1noc(-c2ccccc2Cl)n1 [Example 34, 6-chloro-N-{4-[5-(2-chlorophenyl)-1,2,4-oxadiazol-3-yl]-3-methoxyphenyl}pyridine-2-carboxamide]
30 | 99.2 to 119% | COc1cc(NC(=O)c2cccc(F)n2)ccc1-c1noc(-c2ccccc2Cl)n1 [Example 32, N-{4-[5-(2-chlorophenyl)-1,2,4-oxadiazol-3-yl]-3-methoxyphenyl}-6-fluoropyridine-2-carboxamide]
